From patent US20250319191A1, “PHARMACEUTICAL COMPOSITION COMPRISING HYALURONIC ACID COMPLEX FOR PREVENTION OR TREATMENT OF SKIN DISEASE” (AJOU UNIVERSITY INDUSTRY-ACADEMIC COOPERATION FOUNDATION, priority 2021, published 2025)

Target: recombinant TLR4 (Homo sapiens, UniProt O00206)
Test: Interaction with TLR4 by surface plasmon resonance
Type: binding
Details: 0-800 μg/ml, 10 μl/min, 120 seconds
Excerpt: In order to immobilize a target receptor on an assay chip, the receptor was immobilized on the chip by flowing recombinant TLR4 while flowing an EDC/NHS solvent. Thereafter, ethanolamine was flowed to remove weakly immobilized or non-immobilized receptor on the chip.

Chain of recombinant TLR4 (O00206 24-839, species assumed): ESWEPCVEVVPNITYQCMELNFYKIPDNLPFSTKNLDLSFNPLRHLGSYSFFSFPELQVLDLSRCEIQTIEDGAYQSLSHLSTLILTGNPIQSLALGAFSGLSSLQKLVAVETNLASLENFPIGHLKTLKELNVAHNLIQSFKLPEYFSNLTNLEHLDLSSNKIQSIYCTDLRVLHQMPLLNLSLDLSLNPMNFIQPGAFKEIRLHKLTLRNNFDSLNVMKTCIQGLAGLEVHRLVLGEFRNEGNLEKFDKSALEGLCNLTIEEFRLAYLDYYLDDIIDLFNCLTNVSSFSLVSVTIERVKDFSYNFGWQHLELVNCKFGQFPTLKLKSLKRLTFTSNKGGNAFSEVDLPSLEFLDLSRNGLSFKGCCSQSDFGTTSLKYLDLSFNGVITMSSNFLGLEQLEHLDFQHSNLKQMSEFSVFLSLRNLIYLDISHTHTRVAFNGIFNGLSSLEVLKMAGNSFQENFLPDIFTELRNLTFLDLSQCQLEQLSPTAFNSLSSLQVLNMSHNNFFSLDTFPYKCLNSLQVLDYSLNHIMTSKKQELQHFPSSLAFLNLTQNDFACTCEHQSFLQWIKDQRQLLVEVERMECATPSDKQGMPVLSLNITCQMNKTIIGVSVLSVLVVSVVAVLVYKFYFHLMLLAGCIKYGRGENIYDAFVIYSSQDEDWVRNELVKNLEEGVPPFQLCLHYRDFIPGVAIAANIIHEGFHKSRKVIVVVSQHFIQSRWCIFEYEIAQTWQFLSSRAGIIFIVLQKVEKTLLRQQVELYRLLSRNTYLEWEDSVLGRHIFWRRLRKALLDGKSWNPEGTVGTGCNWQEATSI

hyaluronic acid [10 kDa free HA]
change in response unit (RU) value: the increase in RU value identified in the HACN group was not observed
